Measurements reported in US10632106B2, “Methods of cancer treatment with 2-(1′H-Indole-3′-carbonyl)-thiazole-4-carboxylic acid methyl ester” (Ariagen, Inc., priority 2009, dated 2020).

Tests used:
Type in all cases: in vivo
[1] = system: human prostate cancer cell line LNCaP xenografts; test: LNCaP xenograft growth inhibition in nude mice; settings: 20 mg/kg b.w. i.p. once daily
Description: (§1) All the procedures related to animal handling, care, and the treatment in the study were performed following guidelines approved by an Institutional Animal Care and Use Committee (IACUC) of Crown Bioscience, Inc. (Santa Clara, Calif., USA, a contract research organization we hired) based on the guidance of the Association for Assessment and Accreditation of Laboratory Animal Care (AAALAC). Animals were checked for any effects of tumor growth and drug treatment on normal behavior such as mobility, food and water consumption, body weight gain/loss (gross body weights were measured twice weekly), eye/hair matting, and any other abnormal effect. Death and observed clinical signs were recorded on the basis of the number of animals within each group. Individual animals with a tumor volume exceeding 3,000 mm^3 or animals of a group with a mean tumor volume exceeding 2,000 mm^3 were euthanized. In addition, animals showing signs of severe distress and/or pain, dropping body weight more than 20% from that at the start of treatment, or losing the capability of accessing adequate food or water were humanely sacrificed.
The human prostate cancer cell line LNCaP (ATCC, American Type Culture Collection, Manassas, Va., USA) were maintained in vitro as monolayer culture in RPMI-1640 medium supplemented with 10% fetal bovine serum (FBS), 100 U/ml penicillin, 100 μg/ml streptomycin, and 2 mM L-glutamine at 37° C. in an atmosphere of 5% CO2 in air. The tumor cells were routinely subcultured twice a week. The cells growing in an exponential phase were harvested and counted for tumor inoculation.
(§2) Each mouse was inoculated subcutaneously at the right flank with the LNCaP cells (1×10^7) in 0.1 ml of PBS for tumor development. When a mean tumor volume reached around 150 mm^3, the tumor-bearing mice were divided into homogeneous blocks based on their tumor volumes followed by a randomization of mice in each block into treatment groups (thus minimizing variations in tumor response to treatments due to the differential in initial mean tumor volumes). Each treatment group was consisted of 8 tumor-bearing mice. Vehicle (DMSO) or ITE in the vehicle at specified doses were administered to the mice by either i.p. (intraperitoneal) or p.o. (oral) injection once or twice daily for 28 continuous days as indicated.
(§3) Tumor volume was measured twice weekly in two dimensions using a caliper and the volume was calculated with a formula of: V=0.5 a×b^2, where a and b are the long and short diameter (in mm) of a tumor, respectively. The tumor volume was then used for calculations of both TGI (Tumor Growth Inhibition) and TGD (Tumor Growth Delay). The TGI was determined by: TGI=ΔT/ΔC×100%, where ΔT was a difference between the mean tumor volume at a specified day of observation and that at the day treatment starts (day 1) for a drug treated group whereas ΔC was the same difference measured for the control group. The TGD was calculated as: TGD=T−C, where T was the time (in days) required for tumors in a drug treated group to reach a predetermined mean tumor volume and C the time (in days) in the control group to reach the same volume. A tumor weight was derived by equating 1,000 mm^3 in volume to 1,000 mg in weight. A net body weight was then derived by subtracting a tumor weight from a corresponding gross body weight with the tumor.
(§4) Summary statistics, including mean and the standard error of the mean (SEM), are provided for the tumor volume of each group at each time point. Statistical analysis of difference in tumor volume among groups was conducted on a data set either at the best therapeutic time point or at the final dosing day as indicated. The tumor volume data were log-transformed and evaluated using a one-way ANOVA followed by Tukey's test when significance was observed. All data were analyzed using SPSS 16.0 and p<0.05 was considered to be statistically significant.

[2] = system: human liver cancer cell line HepG2 xenografts; test: HepG2 xenograft growth inhibition in nude mice
Description: as §1, §2, §3, §4
(§5) The culture and inoculation of human prostate cancer cell line LNCaP were as described in Example 1. The manipulation for human liver cancer cell line HepG2 (ATCC) was similar as that for LNCaP except that DMEM (instead of RPMI-1640) medium was used, the L-glutamine was not used, and 2×10^6 cells were used for inoculation into female nude mice. The handling of human ovarian cancer cell line OVCAR-3 (ATCC) was the same as that of LNCaP except that the DMEM medium was used and 5×10^6 cells were used for inoculation into female nude mice. […]

[3] = system: human ovarian cancer cell line OVCAR-3 xenografts; test: OVCAR-3 xenograft growth inhibition in nude mice
Description: as §1, §2, §3, §4, §5

[4] = 80 mg/kg i.p. once daily, at a tumor volume of 800 mm^3
[5] = female, nude, mouse, in vivo, 32 day

## CCC(=O)c1csc(C(=O)c2c[nH]c3ccccc23)n1 [ITK]
[1]; at a tumor volume of 1,000 mm^3
  TGD (Tumor Growth Delay): 16 days
[1]; day 28, TGI=ΔT/ΔC×100%
  TGI (Tumor Growth Inhibition): 51%
[2]; 80 mg/kg i.p. once daily
  net body weight loss: no obvious net body weight loss
[2]; [4]
  TGD (Tumor Growth Delay): 26 days
[2]; 80 mg/kg i.p. once daily, day 22, TGI=ΔT/ΔC×100%
  TGI (Tumor Growth Inhibition): 22%
[2]; [5]
  mice died: 1 out of 8
[3]; 80 mg/kg i.p. once daily
  net body weight loss: no obvious net body weight loss
[3]; [4]
  TGD (Tumor Growth Delay): 13 days
[3]; 80 mg/kg i.p. once daily, day 33, TGI=ΔT/ΔC×100%
  TGI (Tumor Growth Inhibition): 46%
[3]; [5]
  mice died: 1 out of 8
